The nature of data set [1]: in vivo. Here is the method: (§1) Compounds: A stock solution of DMXAA, synthesised in the Auckland Cancer Society Research Centre, was prepared in phosphate-buffered saline, protected from light and stored frozen. Cisplatin (Sigma Chemical Co., St. Louis, Mo.) was dissolved in 0.9% saline. Stock solutions of carboplatin and 5-fluorouracil (Bristol Myers Squibb, Sermonita, Italy) and cyclophosphamide (Mead Johnson Oncology Products, Princeton, N.J.) were diluted with sterile water. […] All compounds were administered to mice by i.p. injection at 0.01 ml/g bodyweight.
(§2) Animals and Tumours: Murine mammary carcinoma MDAH-Mca-4 tumours were grown from stocks stored in liquid nitrogen at the sixth transplant generation. Tumours (eighth transplant generation when used) were grown from 20 μl of cell suspension (7 mg packed cells), inoculated i.m. (intramuscular) in the right gastrocnemius muscle of female C3H/HeN mice (22-25 g at the time of treatment). Mice were randomised to treatment which commenced when the tumour+leg diameter reached 10-11 mm (0.5-0.7 g tumour).
(§3) Host Toxicity and Antitumour Activity: Mice were treated with chemotherapeutic drugs at a range of doses, at 1.33-fold increments, up to the expected MTD (maximum tolerated dose, as estimated in pilot experiments or from the literature). Toxicity was assessed as lethality, and body weight loss measured four days after treatment. Any animals becoming moribund were terminated and treated as drug-related deaths in the analysis. The diameter of the tumour-bearing leg was measured 3 times per week after treatment. Antitumour activity was assessed from the tumour growth delay, defined as the difference in time to reach the endpoint of 13 mm (1.5 g tumour) for treated and control groups. Responses were classed as cures if animals were free of evident tumour 120 days after treatment. The statistical significance of tumour growth inhibition was tested by ANOVA using SAS for Windows, with Dunnett's test to evaluate p-values for differences between treatment groups. In experiments with substantial numbers of cures (free of tumour for >120 days after treatment), statistical significance was tested by Kruskal-Wallis non-parametric analysis of variance using SAS for Windows, and the difference between treatment and control groups by Dunn's test using Sigmastat v2.0. The gradient and standard error of dose-response curves was determined by linear regression using Sigmastat, and the DMF (Dose Modifying Factor) calculated as the gradient with DMXAA/gradient without DMXAA.

The test system of the next data set is MDAH-Mca-4 tumours. It counts as in vivo, C3H/HeN mice. Conditions: for DMF: Dose Modifying Factor = gradient with DMXAA (80 μmol/kg)/gradient without DMXAA; for growth delays at their MTDs: chemotherapy drug alone at MTD; for Slope of dose/response: growth delay vs dose, linear regression; for single agent activity against MDAH-Mca-4 tumour: doses up to MTD. Here is the method: as §1, §2, §3

The nature of data set [2]: Pharmacokinetics of carboplatin (platinum by ICP-MS) and DMXAA (HPLC) in plasma and tumour. Particulars: plasma; DMXAA 80 μmol/kg i.p.; (% CV).
Protocol: (§4) Pharmacokinetics: Female C3H/HeN mice bearing MDAH-Mca-4 tumours (0.5-0.7 g) were injected i.p. with carboplatin (316 μmol/kg), DMXAA (80 μmol/kg), or simultaneously received carboplatin and DMXAA, at the same doses. […] Groups of 2-5 mice were used for each time point.
(§5) HPLC analysis of DMXAA: Concentrations of DMXAA in plasma were determined as follows. Aliquots of plasma (50 μl) were treated with 1 ml of ice-cold acetonitrile:methanol (3:1 v/v), centrifuged, and the resulting supernatants evaporated using a Speed-Vac solvent concentrator (Savant Instruments, NY). The residues were dissolved in 200 μl of 10 mM ammonium acetate buffer (pH 5) and 25 μl was analysed by HPLC using a HP1100 system with diode array detector (278 nm) and fluorescence detector. The column used was a 3.2 mm×150 mm C8 5 μm column (Alltima Associates Inc., Deerfield, Ill.) and a flow rate of 0.7 ml/min, with a mobile phase of 16% acetonitrile (v/v) in 10 mM ammonium acetate buffer (pH 5). The retention time for DMXAA was 7.3 min. […] The intra- and inter-assay precision and accuracy gave coefficients of variation <7%, and an average recovery of 70%. The lower sensitivity limit of detection by fluorescence (signal:noise ratio of 3) was 0.1 μM. […]
Data set [3] deals with PSN1 pancreatic tumour xenografts. As to the kind of experiment: PSN1 xenograft tumour volume tripling and doubling time. Conditions: i.v., DMXAA 20 mg/kg, gemcitabine 240 mg/kg, female MF1 nude mice; for PSN1 volume doubling times, Median: control 3.2; for PSN1 volume tripling times, Median: control 4.9.
Data set [4] can be described thus: in vivo. Conditions: female, C3H/HeN, mouse, plasma, ip, 80 μmol/kg.
Protocol: as §4, §5
In a further data set the test system is tumour blood flow. Conditions: Phase I clinical trials, well-tolerated doses; cited from earlier work.
Where [5] appears, read: chemotherapy drug co-administered with DMXAA 80 μmol/kg, i.p.
Where [6] appears, read: female, C3H/HeN, mouse, in vivo, ip, MTD.
The mark [7] stands for this setting: chemotherapy drug alone, ± standard error of the slope.
Setting [8] is: co-administered with DMXAA 80 μmol/kg.
Where [9] appears, read: chemotherapy drug alone, i.p., mice bearing MDAH-Mca-4 tumours.
Where [10] appears, read: female, C3H/HeN, mouse, in vivo, ip.
Setting [11] is: DMXAA alone at 80 μmol/kg, i.p.

Counter-ions that a name gives are not always drawn. Like-named read-outs stand apart in the source and are kept apart here. Marks after values point to notes of the source that are not given here.

The values below come from patent US7863321B2, “Anti-cancer combinations” (Cancer Research Technology Limited, priority 2001, dated 2011).

By Km is commonly meant the substrate concentration at which the rate is half of its maximum.

As for `O=c1[nH]cc(F)c(=O)[nH]1` [5-fluorouracil, 5-fluoro-2,4(1H,3H)-pyrimidinedione], the “% body weight change at 4 days” value is reported as −8.5 ± 0.8% in “in vivo [1]” (chemotherapy drug alone, i.p.) and −14.1 ± 1.5% in the data set “in vivo [1]” (setting [5]). In “in vivo [1]” (setting [6]), this molecule displayed an MTD of 1780 µmol/kg. In the data set with MDAH-Mca-4 tumours, this molecule returned a DMF of 0.5 ± 0.2. Besides, in the data set on MDAH-Mca-4 tumours, the “growth delays at their MTDs” value is listed as approximately 10 days. In addition, the values for the Slope of dose/response with MDAH-Mca-4 tumours (setting [7]) and in the data set with MDAH-Mca-4 tumours (setting [8]) were 0.0051 ± 0.001^a days/μmol/kg and 0.0027 ± 0.001 days/µmol/kg, respectively.

For the molecule `N.N.O=C([O-])C1(C(=O)[O-])CCC1.[Pt+2]` [Carboplatin, platinum, diammine [1,1-cyclobutanedicarboxylato(2-)-0,0′]-, (SP-4-2)], the “% body weight change at 4 days” value in “in vivo [1]” (chemotherapy drug alone, i.p.) is given as −5.6 ± 1.5%; in “in vivo [1]” (setting [5]), −8.5 ± 1.4%. The MTD in “in vivo [1]” (setting [9]) and in the data set “in vivo [1]” (setting [5]) was 316 µmol/kg in each case. In addition, the DMF with MDAH-Mca-4 tumours is 3.4 ± 2.3. The “single agent activity against MDAH-Mca-4 tumour” value (“single agent activity” below) in the data set on MDAH-Mca-4 tumours (chemotherapy drug alone) is “essentially inactive”. The Slope of dose/response came out at 0.0094 ± 0.0035 days/µmol/kg with MDAH-Mca-4 tumours (setting [7]) and 0.032 ± 0.010 days/µmol/kg with MDAH-Mca-4 tumours (setting [8]).

For the molecule `N.N.[Cl][Pt][Cl]` [Cisplatin], the “% body weight change at 4 days” value is given as −9.5 ± 1.4% in “in vivo [1]” (chemotherapy drug alone, i.p.) and −14.4 ± 2.3% in “in vivo [1]” (setting [5]). The MTD in “in vivo [1]” (setting [9]) and in the data set “in vivo [1]” (setting [5]) was 42.1 µmol/kg throughout. This molecule showed a DMF in the data set with MDAH-Mca-4 tumours of 1.8 ± 1.2. Besides, the “growth delays at their MTDs” value in the data set on MDAH-Mca-4 tumours is recorded as approximately 10 days. Moreover, the Slope of dose/response in the data set with MDAH-Mca-4 tumours (setting [7]) was determined as 0.19 ± 0.06 days/µmol/kg; in the data set with MDAH-Mca-4 tumours (setting [8]), 0.35 ± 0.12 days/µmol/kg.

Regarding `O=P1(N(CCCl)CCCl)NCCCO1` (centres unmarked) [Cyclophosphamide, 2-[bis(2-chloroethyl)amino]tetrahydro-2H-13,2-oxazaphosphorine-2-oxide monohydrate], the “% body weight change at 4 days” value in “in vivo [1]” (chemotherapy drug alone, i.p.) is −0.8 ± 1.3%; in “in vivo [1]” (setting [5]), −9.2 ± 1.4%. In “in vivo [1]” (setting [10]), this molecule came in with an MTD at 4 days not below 1340 µmol/kg. The DMF in the data set on MDAH-Mca-4 tumours was found to be 2.7 ± 0.3. Besides, the “growth delays at their MTDs” value in the data set with MDAH-Mca-4 tumours is approximately 10 days. In addition, the values for the Slope of dose/response in the data set with MDAH-Mca-4 tumours (setting [7]) and in the data set with MDAH-Mca-4 tumours (setting [8]) were 0.0062 ± 0.0001 days/µmol/kg and 0.0167 ± 0.0013 days/µmol/kg, respectively.

For `Cc1ccc2c(=O)c3cccc(CC(=O)O)c3oc2c1C` [DMXAA, 5,6-dimethylxanthenone-4-acetic acid], the Vmax in data set [2] is 63 (6.1) μm hr^−1. Further, in data set [3], the “PSN1 volume doubling times, Treated-Control” value was determined as 0.4 days; the “PSN1 volume tripling times, Treated-Control” value is on record as 1.1 days; the “PSN1 volume doubling times, Median” value was 3.6 days; the “PSN1 volume tripling times, Median” value was 6.0 days. Also, the Km in the data set “in vivo [4]” amounted to 220 µM. Moreover, the “tumour blood flow by dynamic MRI” value in the data set on tumour blood flow is listed as “significant reduction in tumour blood flow”. Further, in the data set on MDAH-Mca-4 tumours (setting [11]), the “mean tumour growth delays (range)” value lay in the range of 3.5 to 8.3 days and the “tumour growth delay, overall mean” value came out at 6.6 ± 0.6 days.

For `COc1cccc2c1C(=O)c1c(O)c3c(c(O)c1C2=O)C[C@@](O)(C(=O)CO)C[C@@H]3O[C@H]1C[C@H](N)[C@H](O)[C@H](C)O1` [Doxorubicin, (8S,10S)-10-[(3-amino-2,3,6-trideoxy-a-L-lyxo-hexopyranosyl)oxy]-8-glycolyl-7,8,9,10-tetrahydro-6,8,11-trihydroxy-1-meth-oxy-5,12-naphthacenedione hydrochloride], the “% body weight change at 4 days” value in the data set “in vivo [1]” (chemotherapy drug alone, i.p.) is reported as −3.9 ± 0.6%; in the data set “in vivo [1]” (setting [5]), −5.5 ± 1.2%. Also, the MTD in “in vivo [1]” (setting [10]) is 17.8 µmol/kg; in the data set “in vivo [1]” (setting [6]), 23.7 µmol/kg. The molecule also had a DMF in the data set with MDAH-Mca-4 tumours of 2.5 ± 1.1. In addition, the “growth delays at their MTDs” value in the data set with MDAH-Mca-4 tumours is approximately 10 days. In the data set on MDAH-Mca-4 tumours (setting [7]), the Slope of dose/response came out at 0.42 ± 0.10 days/µmol/kg.

In the case of `COc1cc([C@@H]2c3cc4c(cc3[C@@H](O[C@@H]3O[C@@H]5CO[C@@H](C)O[C@H]5[C@H](O)[C@H]3O)[C@H]3COC(=O)[C@H]23)OCO4)cc(OC)c1O` [Etoposide, 4′-demethylepipodophyllotoxin-9-[4,6-0-(R)-ethylidene-(beta)-D-glucopyranoside]], the “% body weight change at 4 days” value in “in vivo [1]” (chemotherapy drug alone, i.p.) is on record as −2.0 ± 1.7%; in “in vivo [1]” (setting [5]), −6.5 ± 3.3%. For the same molecule, the MTD in “in vivo [1]” (setting [6]) is not below 75 µmol/kg. The DMF in the data set with MDAH-Mca-4 tumours amounted to 4.7 ± 2.9. In addition, in the data set with MDAH-Mca-4 tumours (chemotherapy drug alone), the “single agent activity” value was “essentially inactive”. Further, the Slope of dose/response with MDAH-Mca-4 tumours (setting [7]) was 0.030 ± 0.010 days/µmol/kg; with MDAH-Mca-4 tumours (setting [8]), 0.14 ± 0.04 days/µmol/kg.

Turning to `CC[C@]1(O)C[C@H]2CN(CCc3c([nH]c4ccccc34)[C@@](C(=O)OC)(c3cc4c(cc3OC)N(C=O)[C@H]3[C@@](O)(C(=O)OC)[C@H](OC(C)=O)[C@]5(CC)C=CCN6CC[C@]43[C@@H]65)C2)C1` [Vincristine], the “% body weight change at 4 days” value in the data set “in vivo [1]” (chemotherapy drug alone, i.p.) is −7.0 ± 1.2%; in “in vivo [1]” (setting [5]), −10.0 ± 1.4%. Also, the MTD in “in vivo [1]” (female, C3H/HeN, mouse, in vivo, ip, MTD, chemotherapy drug alone, mice bearing MDAH-Mca-4 tumours) was 1 µmol/kg; in the data set “in vivo [1]” (female, C3H/HeN, mouse, in vivo, ip, MTD, chemotherapy drug co-administered with DMXAA 80 μmol/kg), 1 µmol/kg. The DMF with MDAH-Mca-4 tumours was >7^c. In the data set on MDAH-Mca-4 tumours (chemotherapy drug alone), the “single agent activity” value is “essentially inactive”. The figures for the Slope of dose/response in the data set on MDAH-Mca-4 tumours (setting [7]) and with MDAH-Mca-4 tumours (setting [8]) were -0.0 ± 1.3 days/µmol/kg and 14.1 ± 5.4 days/µmol/kg, respectively.

On to `Nc1ccn([C@@H]2O[C@H](CO)[C@@H](O)C2(F)F)c(=O)n1` [gemcitabine, 2′-deoxy-2′,2′-difluorocytidine monohydrochloride (b-isomer)], for which, in data set [3], the “PSN1 volume doubling times, Treated-Control” value is on record as 7.5 days; the “PSN1 volume tripling times, Treated-Control” value stood at 9.0 days; the “PSN1 volume doubling times, Median” value is on record as 9.7 days; the “PSN1 volume tripling times, Median” value turned out to be 13.9 days.
